Reference: patent US11534283B2 (priority 2017, dated 2022)
Entries after “also recorded” stand apart in the source; their conditions may differ.

Experiments:
[1] = tested on: cells labeled adjacent the implantation site in the adult mouse cortex; format: cell-based
Experimental: Implantable devices were filled with α-bungarotoxin fused to the dye Alexa Fluor 555 (α-BTX Alexa 555) in PBS at a concentration of 0.3 mg/mL. Animals were treated with the implantable device for 2 hours prior to sacrifice. Tissues were prepared for live cell electrophysiology assays (patch clamp) and fluorescence imaging.
Implantable devices filled with fluorescently labeled α-bungarotoxin (α-BTX) were implanted and the release was studied via imaging and live cell electrophysiology assays.

[2] = tested on: adult mouse cortex; details: in vivo

Compound	electrophysiological activity of agonist AR-R17779 in the control group ([1]; cells labeled with control (Alexa 555) released from the device, patch clamp)	labeling of individual cells (uptake) [2]	localization of fluorescence after release from the implantable device [2]	electrophysiological response of the α-BTX labeled cell to agonist AR-R17779 [1]
O=C1NCC2(CN3CCC2CC3)O1 (stereo not shown) [AR-R17779]	inhibitory activity			
α-bungarotoxin [α-BTX-Alexa 555]		individual cells were clearly labeled; also recorded: labeling individual cells	local to the implantation site; also recorded: adjacent the implantation site	no activity
